# Measured values as given in US20190388377A1, “COMPOSITIONS AND METHODS FOR THE TREATMENT OF LIVER DISEASES AND DISORDERS” (AXCELLA HEALTH INC., priority 2018, published 2019).
# Legend:
# [1] = tested on: Procollagen III; assay: Procollagen III secretion by ELISA, TGFβ1-stimulated hepatic stellate cells, Example 4; type: cell-based, human; details: HSC, three donors
# Description: (§1) Primary human hepatic stellate cells were obtained from Samsara Sciences. Cells from three different donors were grown in Complete HSC Medium to ˜80% confluence in T75 or T150 flasks below passage 10 were seeded into sterile, collagen I coated, 96-well optical plastic microplates (ThermoScientific) and incubated overnight at 37° C., 5% CO2 in a humidified incubator in DMEM with 2% Fetal Bovine Serum and 1% Antimycotic. […] After 24 hours of stimulus, supernatant was removed and used to measure Procollagen III and cells were then washed and fixed with 4% paraformaldehyde for further staining. Procollagen III, an important biomarker of fibrosis was measured by ELISA (Human PCIII Elisa Kit, G-Biosciences) following the manufacturer's recommendations. Fixed cells with 4% paraformaldehyde were permeabilized with 0.1% Triton X-100 then immunostained for alpha SMA and labeled for EdU incorporation.
# [2] = tested on: Albumin; assay: Albumin secretion after 72 h by ELISA, PHH model, Example 2; type: cell-based, human; details: FFA+TNFα
# Description: (§2) PHH from two healthy human donors (Lonza, TRL) were seeded on day 0 at density of 6e04 cells in 96 well optical microplates (Thermofisher) in hepatocyte plating media (William's E medium, WEM) (Gibco) supplemented with 10% heat-inactivated FBS (Atlanta Bio), 2 mM Glutamax (Gibco), and 0.2% Primocin (InVivoGen) and incubated for 6 hours at 37° C., 5% CO2. After 6 hours, cells were washed twice and incubated overnight at 37° C., 5% CO2 with Hepatocytes defined medium (Corning) supplemented with 2 mM Glutamax (Gibco), and 1× Penicillin/Streptomycin. On day 1, cells were washed twice and incubated for 24 h in the hepatocyte culture media in the same conditions described above.
# (§3) On day 2, cells were washed twice with DPBS 1× (Gibco) to remove excess amino acids and maintained in pretreatment media (1×HMDB, a defined custom amino acid concentration based on the mean physiological concentrations in blood, in WEM±supplemental amino acids): • a. Amino acid-free WEM (US Biologicals) supplemented with 11 mM Glucose (Sigma), 0.272 mM Sodium Pyruvate (Sigma), 1× P/S (Gibco) and containing 1×HMDB with no supplemental amino acids; or • b. The same media described above 1×HMDB WEM with supplemental amino acid and amino acid combination treatments at various concentrations. Cells were maintained in the defined media (a. & b.) for 24 hours at 37° C., 5% CO2. The HMDB values are published in the Human Metabolome Database (Wishart D S, Tzur D, Knox C, et al., HMDB: the Human Metabolome Database. Nucleic Acids Res. 2007 January; 35 (Database issue):D521-6. 17202168; which is hereby incorporated by reference in its entirety). Co-Treatment with Free Fatty Acids and Amino Acids Combination
# (§4) After 24 h pre-treatment, cells maintained in the pretreatment media±supplemental amino acids (section (a. & b.) described above) were exposed to free fatty acids (FFA) at 250 uM with a ratio of 2:1 (Oleate:Palmitate) supplemented with TNF-α (Thermofisher) at 1 ng/ml. Cells were incubated with the FFAs mixture (FFAs+TNF-α)±supplemental amino acids treatments for 24 hours at 37° C., 5% CO2. After 24 hours incubation, media was removed for cytokine analysis and replaced by fresh media containing the same conditions described above (FFAs mixture±supplemental amino acids treatments). Cells were incubated for an additional 48 hours for a total of 72 hours of FFA and TNF-α stimulation. After 72 hours of incubation, media was removed for albumin and urea analysis and the cells were fixed for nuclei and lipid staining.
# Albumin secretion was measured as a functionality test in primary human hepatocytes. Albumin was measured by ELISA (Human Albumin ELISA Quantitation set, Bethyl Laboratories) at 1/200 dilution in the sample diluent (Bethyl Laboratories). Data is reported as median fold change from control, statistical analysis was done using t-Test.
# [3] = tested on: alpha smooth muscle actin (αSMA); assay: HSC activation by alpha SMA immunostaining, TGFβ1-stimulated hepatic stellate cells; type: cell-based, human
# Description: as §1, with “staining.” for “staining. Procollagen III, an important biomarker of fibrosis was measured by ELISA (Human PCIII Elisa Kit, G-Biosciences) following the manufacturer's recommendations. Fixed cells with 4% paraformaldehyde were permeabilized with 0.1% Triton X-100 then immunostained for alpha SMA and labeled for EdU incorporation.”
# Procollagen III, an important biomarker of fibrosis was measured by ELISA (Human PCIII Elisa Kit, G-Biosciences) following the manufacturer's recommendations. Fixed cells with 4% paraformaldehyde were permeabilized with 0.1% Triton X-100 then immunostained for alpha SMA and labeled for EdU incorporation.
# Cells were imaged using ImageXpress micro confocal high content imager (Molecular Devices). […] Image analysis was performed using MetaXpress version 6.2.3.733 (Molecular Devices).
# Fixed cells immunostained for alpha smooth muscle actin (αSMA) were analyzed and stained area was normalized to total nuclei count. Fold change were calculated relative to the baseline amino acid (1×HMDB) condition stimulated with 3 ng/mL TGFβ1.
# [4] = tested on: Human CCL2 (MCP-1); assay: MCP1 secretion by ELISA after 24 h, PHH model for NASH, Example 2; type: cell-based; details: FFA+TNFα
# Description: as §2, §3, §4
# Human CCL2 (MCP-1) was measured by ELISA (Human […] DuoSet ELISA, R&D Systems) at 1/20 dilution in 1× Reagent Diluent (Reagent Ancillary Kit 2, R&D Systems). MCP1 data in primary human hepatocytes treated with FFA+TNFα+supplemental amino acids was normalized to 1×HMDB WEM+FFA+TNFα baseline. Data is reported as median fold change from control, statistical analysis was done using t-Test.
# [5] = tested on: primary human hepatocytes; assay: Intracellular lipid accumulation after 72 h by fluorescence microscopy, PHH model for NASH, Example 2; type: cell-based; details: FFA+TNFα; for Lipid Median (median fold change from control): 72 h
# Description: as §2, §3, §4
# After 72 hours, cells were washed twice in 100 ul PBS 1× (Gibco), fixed with 4% Paraformaldehyde, and washed twice with PBS 1× (100 ul). After fixation, lipids were stained with HCS LipidTOX Red Neutral (Thermofisher Scientific) diluted 1000× and nuclei were stained with Hoechst 3342 (Life Technologies) diluted to 4 ug/ml. The LipidTOX™ neutral lipid stain has an extremely high affinity for neutral lipid droplets that was detected by fluorescence microscopy using a high content imager (Molecular Devices). Data was normalized to the cell concentration determined by nuclei count. Images were analyzed and total lipid area was calculated using granularity module in MetaXpress 6 software. Data is reported as median fold change from control, statistical analysis was done using t-Test.
# [6] = tested on: Urea; assay: Urea production after 72 h by urea nitrogen (BUN) colorimetric assay, PHH model, Example 2; type: cell-based, human; details: FFA+TNFα
# Description: as §2, §3, §4
# Urea was measured as an indicator of hepatocytes functionality by urea nitrogen direct assay (StanBio). Cell supernatant was added to the BUN color reagent and BUN acid reagent at 1(color):2(acid) ratio. Incubate the cell supernatant with BUN reagent for 12 min at 100° C. then for 5 min at 4° C. Read absorbance at 520 nm. Data was normalized to the control. Data is reported as median fold change from control, statistical analysis was done using t-Test.
# [7] = tested on: primary human hepatocytes; assay: Intracellular triglyceride level after 72 h, colorimetric assay, Example 3; type: cell-based; details: for triglyceride level (in words): FFAs+TNFα, two healthy donors
# Description: On day 2, cells were washed twice with DPBS 1× (Gibco) and maintained in: • a. Amino acid-free WEM (US Biologicals) supplemented with 11 mM Glucose (Sigma), 0.272 mM Sodium Pyruvate (Sigma), 1× P/S (Gibco) and containing a defined custom amino acid concentration based on the mean physiological concentrations in blood (1× HMDB WEM (−) supplemental amino acids); or • b. The same media described above 1×HMDB WEM (+) supplemental amino acids treatment dose at a 30× of HMDB amino acid concentration. Cells were maintained in the defined amino acids media (a. & b.) for 24 hours at 37° C., 5% CO2. Co-Treatment with Free Fatty Acids and Various Amino Acids Supplemental Treatments
# After 24 h pre-treatment, cells maintained in the same media (a. & b.) described above 1×HMDB±supplemental amino acids were now exposed to free fatty acids (FFA) at 250 uM with a ratio of 2:1 (Oleate:Palmitate) supplemented with TNF-α (Thermofisher) at 1 ng/ml or vehicle. Cells with the FFAs+TNFα mixture±amino acids treatments were incubated for 72 hours at 37° C., 5% CO2 with a media change after the first 24 hours.
# After 72 hours, cells were washed once with cold PBS 1× (Gibco), scrapped off and collected into 75 ul of standard diluent (Cayman). Collected cells were vortexed for 1 min at a 2500 rpm speed followed by two times sonication (Elmasonic sonicator) for 1 min each. Supernatants were collected for triglyceride analysis after centrifugation at 1000 rpm for 10 min at 4° C. Intracellular triglyceride level was assessed using triglyceride colorimetric assay kit (Cayman) and following manufacturer's recommendations. Data was normalized to the total amount of protein using Bicinchoninic Acid Protein Assay Kit (Sigma). Data is reported as median fold change from FFAs+TNFα condition, statistical analysis was done using t-Test.
smiles,measurement,setting,value
"N=C(N)NCCC[C@H](N)C(=O)O [R, L-arginine]",procollagen III secretion (in words),[1],had no impact on procollagen III secretion
same,albumin secretion (in words),[2]; hepatocyte donor 1,did not reduce albumin secretion
same,alpha SMA stained area (in words),[3],reduced the alpha SMA stained area
same,MCP1 secretion (in words),[4]; hepatocyte donor 1,did not reduce MCP1 secretion
same,lipid accumulation (in words),[5]; hepatocyte donor 1,did not reduce lipid accumulation
same,urea production (in words),[6]; hepatocyte donor 1,induced urea production
"CC[C@H](C)[C@H](N)C(=O)O [I, L-isoleucine]",procollagen III secretion (in words),[1],had no impact on procollagen III secretion
same,albumin secretion (in words),[2]; hepatocyte donor 1,did not reduce albumin secretion
same,MCP1 secretion (in words),[4]; hepatocyte donor 1,did not reduce MCP1 secretion
same,Lipid Median (median fold change from control),"[5]; donor 1, AA Conc. 20X",−0.105
same,lipid accumulation (in words),[5]; hepatocyte donor 1,reduced lipid accumulation
same,urea production (in words),[6]; hepatocyte donor 1,No changes in urea production
"CC(C)[C@H](N)C(=O)O [V, L-Valine]",procollagen III secretion (in words),[1],had no impact on procollagen III secretion
same,albumin secretion (in words),[2]; hepatocyte donor 1,decreased albumin production at a higher level than the previously described amino acids
same,MCP1 secretion (in words),[4]; hepatocyte donor 1,did not reduce MCP1 secretion
same,Lipid Median (median fold change from control),"[5]; donor 1, AA Conc. 20X",−0.685
same,lipid accumulation (in words),[5]; hepatocyte donor 1,reduced lipid accumulation
"CC(C)C[C@H](N)C(=O)O [L, L-leucine]",procollagen III secretion (in words),[1],had no impact on procollagen III secretion
same,albumin secretion (in words),[2]; hepatocyte donor 1,decreased albumin production at a higher level than the previously described amino acids
same,MCP1 secretion (in words),[4]; hepatocyte donor 1,did not reduce MCP1 secretion
same,Lipid Median (median fold change from control),"[5]; donor 1, AA Conc. 20X",−0.725
same,lipid accumulation (in words),[5]; hepatocyte donor 1,reduced lipid accumulation
same,urea production (in words),[6]; hepatocyte donor 1,No changes in urea production
"C[N+](C)(C)C[C@H](O)CC(=O)[O-] [Car, L-carnitine]",procollagen III secretion (in words),[1],had no impact on procollagen III secretion
same,triglyceride level (in words),[7],reduces triglyceride level but the effect was less pronounced than the combinations described previously
same,albumin secretion (in words),[2]; hepatocyte donor 1,did not reduce albumin secretion
same,albumin secretion (in words),[2]; hepatocyte donor 2,reduced albumin secretion
same,alpha SMA stained area (in words),[3],reduced the alpha SMA stained area
same,MCP1 secretion (in words),[4]; hepatocyte donor 1,did not reduce MCP1 secretion
same,MCP1 secretion (in words),[4]; hepatocyte donor 2,did not affect MCP1 secretion
same,lipid accumulation (in words),[5]; hepatocyte donor 1,reduced lipid accumulation
same,lipid accumulation (in words),[5]; hepatocyte donor 2,reduced lipid accumulation but less than the previously described combinations
same,urea production (in words),[6]; hepatocyte donor 1,No changes in urea production
same,urea production (in words),[6]; hepatocyte donor 2,slightly reduced urea production
"N[C@@H](CO)C(=O)O [S, L-serine]",procollagen III secretion (in words),[1],had no impact on procollagen III secretion
same,"Triglyceride Level relative to the baseline FFA + TNF, Median","[7]; FFA + TNF, 72 h, two donors, AA Conc 1X, Nac/Car 0 mM",−0.176
same,triglyceride level (in words),[7],didn't have an impact on triglycerides
same,albumin secretion (in words),[2]; hepatocyte donor 1,decreased albumin production at a higher level than the previously described amino acids
same,albumin secretion (in words),[2]; hepatocyte donor 2,reduced albumin secretion
same,MCP1 secretion (in words),[4]; hepatocyte donor 1,did not reduce MCP1 secretion
same,MCP1 secretion (in words),[4]; hepatocyte donor 2,did not affect MCP1 secretion
same,Lipid Median (median fold change from control),"[5]; donor 1, AA Conc. 25X",−0.178
same,Lipid Median (median fold change from control),"[5]; donor 2, AA Conc. 30X",−0.42
same,lipid accumulation (in words),[5]; hepatocyte donor 1,reduced lipid accumulation
same,lipid accumulation (in words),[5]; hepatocyte donor 2,reduced lipid accumulation but less than the previously described combinations
same,urea production (in words),[6]; hepatocyte donor 1,No changes in urea production
same,urea production (in words),[6]; hepatocyte donor 2,slightly induce urea production
"NC(=O)CC[C@H](N)C(=O)O [Q, L-glutamine]",procollagen III secretion (in words),[1],decreased procollagen III secretion but at a lower extent than LIRNacCar and LIRQNacSCar
same,albumin secretion (in words),[2]; hepatocyte donor 1,decreased albumin production at a higher level than the previously described amino acids
same,MCP1 secretion (in words),[4]; hepatocyte donor 1,did not reduce MCP1 secretion
same,Lipid Median (median fold change from control),"[5]; donor 1, AA Conc. 20X",−0.588
same,lipid accumulation (in words),[5]; hepatocyte donor 1,reduced lipid accumulation
same,urea production (in words),[6]; hepatocyte donor 1,No changes in urea production
